Several values for one entry are separate records, joined by “and”; a condition that tells them apart may be missing. Equal values may be shown once.
Key:
[1] = Partition and distribution co-efficients (logP and logD), shake-flask method; type: physicochemical
Experimental: The lipophilicity of [^125I]WYE-230949 was determined in octanol/water and at physiological pH using a modification of the shake-flask method. […] The radioactivity incorporated in both phases was determined using a gamma counter (Cobra Gamma Counter, Packard, Perkin Elmer Life and Analytical Sciences, Boston, MA, USA). The assay was performed in triplicate on 3 separate occasions. LogP was calculated to be log [counts in octanol/counts in water] and logD was calculated to be log [counts in octanol/counts in pH 7.4 buffer].

histamine H3 receptor = target: T1, histamine H3 receptor (Rattus norvegicus, UniProt Q9QYN8); experiment: Ex vivo autoradiography (target to cerebellum ratios); type: in vivo
T1 construct: Sections (20 µm) cut from a frozen rat brain were pre-incubated in Tris-HCl buffer; from tissue
Experimental: Animal experiments were conducted under the UK Animals (Scientific Procedures) Act 1986. This work was approved by the ethical review committee at the University of Glasgow (PPL: 60/3436) prior to the start of study. Naïve male Sprague-Dawley rats (Harlan, UK), weighing 217 to 352 g were either conscious or anaesthetised (2.5–3% isoflurane via a tracheostomy and artificial ventilation in 70/30% N2O/O2) for the duration of the experiment. Anaesthetised rats had their respiration and temperature monitored throughout. [^125I]WYE-230949 was administered via a femoral vein cannula to anaesthetised rats or via the lateral tail vein to conscious rats. The injected dose for each rat was calculated by measuring the syringe in a dose calibrator before and after [^125I]WYE-230949 administration. The radioactive and radiochemical amounts administered to individual rats ranged from 12.6 to 24.5 MBq and 0.32 to 0.70 µg/kg respectively in all in vivo studies.
Regional brain uptake was determined by ex vivo autoradiography, studies were performed in both conscious and anaesthetised rats in order to investigate the effect of anaesthesia on [^125I]WYE-230949 uptake. At either 30 or 120 min following [^125I]WYE-230949 administration rats were killed by cervical dislocation. The brains were removed, frozen in isopentane at −42°C and stored at −20°C before sectioning (20 µm) in a cryostat (Bright Instrument Company Ltd). Three sections were taken every 400 µm for the entire length of the rat brain and thaw mounted onto poly-L-lysine coated slides. Sections were dried at room temperature and apposed to X-ray film (Kodak Biomax MR-1) for approximately 2 weeks. The resultant autoradiograms were analysed using computer-based densitometry (MCID, Imaging Research, Canada). Relative optical density (ROD) measurements were obtained from 14 ROIs defined with reference to a rat brain atlas. For each brain region examined, bilateral readings were obtained in triplicate and the average reading determined. ROD values in the cerebellum were used as a measure of non-specific binding. Specific binding was calculated as ROD in ROI/ROD in cerebellum.

[2] = target: T2, rat histamine H3 receptor (Rattus norvegicus, UniProt Q9QYN8); experiment: In vitro saturation radioligand binding to rat brain homogenates
T2 construct: from tissue; host or cells: whole brain of male Sprague-Dawley rats, homogenate pellet
Experimental: Animals (male Sprague-Dawley rats; Harlan, UK) were killed by cervical dislocation. Whole brains were immediately excised and placed into ice-cold Tris-HCl buffer (Tris […], pH 7.4; EDTA 5 mM), homogenised and centrifuged at approx 40,000 g for 10 min at 4°C (Beckman J2-21M/E). The pellet was resuspended in 25 ml of buffer and centrifuged as previously, then the final pellet was resuspended in 10 ml of ice cold Tris buffer and stored at −50°C until required. Protein content was analysed using Bio-Rad reagent; absorbance was read on a spectrophotometer at 562 nm. [^125I]WYE230949 binding assays were carried out in a final incubation volume of 500 µl containing Tris-HCl buffer (Tris […], pH 7.4; EDTA 5 mM), brain homogenates (1.47 to 2.27 mg/ml of protein) and [^125I]WYE230949 (0.04–102 nM). Non-specific binding was defined in the presence of 10 µM iodophenpropit. Samples were incubated at 30°C for 30 min, then filtered rapidly through Whatman GF/B filters (pre-treated with 0.3% polyethylenimine; Aldrich, UK) using a Brandel M24R cell harvester and the filters washed with 3×4 ml ice-cold Tris buffer. Radioactivity on the filters was determined by liquid scintillation counting a minimum of 48 h after filtration. All assays were performed in triplicate. Specific binding was determined by subtracting non-specific binding from total binding at each concentration; Kd and Bmax values derived using GraphPad Prism (version 4.03), and expressed as mean ±SEM of the triplicate assays.

T1 sequence (Q9QYN8 whole entry): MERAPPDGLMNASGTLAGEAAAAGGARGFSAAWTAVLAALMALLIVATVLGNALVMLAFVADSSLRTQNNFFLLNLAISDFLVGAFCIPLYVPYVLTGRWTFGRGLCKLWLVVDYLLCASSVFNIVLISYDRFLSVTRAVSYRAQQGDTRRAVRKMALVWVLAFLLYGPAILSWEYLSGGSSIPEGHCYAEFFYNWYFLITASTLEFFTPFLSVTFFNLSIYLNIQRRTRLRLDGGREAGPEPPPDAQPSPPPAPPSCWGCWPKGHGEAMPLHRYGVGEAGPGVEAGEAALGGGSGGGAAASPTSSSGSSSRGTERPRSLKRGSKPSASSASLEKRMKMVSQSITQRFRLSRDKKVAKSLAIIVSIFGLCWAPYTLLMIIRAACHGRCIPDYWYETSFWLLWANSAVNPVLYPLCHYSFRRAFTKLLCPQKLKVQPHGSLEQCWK
T2 sequence (Q9QYN8 whole entry): as above

Structure (SMILES): O=C(c1ccc(Cn2cnc3cccc([125I])c32)cc1)N1CC[C@H](N2CCCC2)C1 [[^125I]WYE-230949]
- logD7.4 ([1]; octanol/phosphate buffer pH 7.4, n = 3): 1.64±0.04
- logP ([1]; octanol/water, n = 3): 1.59±0.04
- Target to cerebellum ratio (histamine H3 receptor; Amygdala, 30 min, anaesthetised): 1.10±0.02
- Target to cerebellum ratio (histamine H3 receptor; Amygdala, 30 min, conscious): 1.12±0.04
- Target to cerebellum ratio (histamine H3 receptor; Amygdala, 120 min, anaesthetised): 1.16±0.03
- Target to cerebellum ratio (histamine H3 receptor; Amygdala, 120 min, conscious): 1.26±0.03
- Target to cerebellum ratio (histamine H3 receptor; Anterior Cortex, 30 min, anaesthetised): 1.09±0.03
- Target to cerebellum ratio (histamine H3 receptor; Anterior Cortex, 30 min, conscious): 1.15 ± 0.02
- Target to cerebellum ratio (histamine H3 receptor; Anterior Cortex, 120 min, anaesthetised): 1.10±0.02
- Target to cerebellum ratio (histamine H3 receptor; Anterior Cortex, 120 min, conscious): 1.16±0.02
- Target to cerebellum ratio (histamine H3 receptor; Caudate Putamen, 30 min, anaesthetised): 1.13±0.03
- Target to cerebellum ratio (histamine H3 receptor; Caudate Putamen, 30 min, conscious): 1.17±0.03
- Target to cerebellum ratio (histamine H3 receptor; Caudate Putamen, 120 min, anaesthetised): 1.20±0.04
- Target to cerebellum ratio (histamine H3 receptor; Caudate Putamen, 120 min, conscious): 1.32±0.04
- Target to cerebellum ratio (histamine H3 receptor; Choroid Plexus, 30 min, anaesthetised): 1.73±0.06
- Target to cerebellum ratio (histamine H3 receptor; Choroid Plexus, 30 min, conscious): 2.68±0.04
- Target to cerebellum ratio (histamine H3 receptor; Choroid Plexus, 120 min, anaesthetised): 1.79±0.10
- Target to cerebellum ratio (histamine H3 receptor; Choroid Plexus, 120 min, conscious): 2.66±0.11
- Target to cerebellum ratio (histamine H3 receptor; Hippocampus, 30 min, anaesthetised): 1.08±0.03
- Target to cerebellum ratio (histamine H3 receptor; Hippocampus, 30 min, conscious): 1.06±0.02
- Target to cerebellum ratio (histamine H3 receptor; Hippocampus, 120 min, anaesthetised): 1.08±0.01
- Target to cerebellum ratio (histamine H3 receptor; Hippocampus, 120 min, conscious): 1.10±0.02
- Target to cerebellum ratio (histamine H3 receptor; Hypothalamus, 30 min, anaesthetised): 1.16±0.03
- Target to cerebellum ratio (histamine H3 receptor; Hypothalamus, 30 min, conscious): 1.13±0.03
- Target to cerebellum ratio (histamine H3 receptor; Hypothalamus, 120 min, anaesthetised): 1.18±0.03
- Target to cerebellum ratio (histamine H3 receptor; Hypothalamus, 120 min, conscious): 1.18±0.02
- Target to cerebellum ratio (histamine H3 receptor; Medial Cortex, 30 min, anaesthetised): 1.10±0.03
- Target to cerebellum ratio (histamine H3 receptor; Medial Cortex, 30 min, conscious): 1.22±0.03
- Target to cerebellum ratio (histamine H3 receptor; Medial Cortex, 120 min, anaesthetised): 1.12±0.02
- Target to cerebellum ratio (histamine H3 receptor; Medial Cortex, 120 min, conscious): 1.21±0.02
- Target to cerebellum ratio (histamine H3 receptor; Nucleus Accumbens (Core), 30 min, anaesthetised): 1.12±0.03
- Target to cerebellum ratio (histamine H3 receptor; Nucleus Accumbens (Core), 30 min, conscious): 1.15±0.03
- Target to cerebellum ratio (histamine H3 receptor; Nucleus Accumbens (Core), 120 min, anaesthetised): 1.24±0.04
- Target to cerebellum ratio (histamine H3 receptor; Nucleus Accumbens (Core), 120 min, conscious): 1.36±0.03
- Target to cerebellum ratio (histamine H3 receptor; Nucleus Accumbens (Shell), 30 min, anaesthetised): 1.12±0.02
- Target to cerebellum ratio (histamine H3 receptor; Nucleus Accumbens (Shell), 30 min, conscious): 1.17±0.06
- Target to cerebellum ratio (histamine H3 receptor; Nucleus Accumbens (Shell), 120 min, anaesthetised): 1.24±0.04
- Target to cerebellum ratio (histamine H3 receptor; Nucleus Accumbens (Shell), 120 min, conscious): 1.33±0.05
- Target to cerebellum ratio (histamine H3 receptor; Posterior Cortex, 30 min, anaesthetised): 1.08±0.03
- Target to cerebellum ratio (histamine H3 receptor; Posterior Cortex, 30 min, conscious): 1.18±0.03
- Target to cerebellum ratio (histamine H3 receptor; Posterior Cortex, 120 min, anaesthetised): 1.13±0.03
- Target to cerebellum ratio (histamine H3 receptor; Posterior Cortex, 120 min, conscious): 1.26±0.02
- Target to cerebellum ratio (histamine H3 receptor; Substantia Nigra, 30 min, anaesthetised): 1.19±0.03
- Target to cerebellum ratio (histamine H3 receptor; Substantia Nigra, 30 min, conscious): 1.10±0.02
- Target to cerebellum ratio (histamine H3 receptor; Substantia Nigra, 120 min, anaesthetised): 1.26±0.04
- Target to cerebellum ratio (histamine H3 receptor; Substantia Nigra, 120 min, conscious): 1.26±0.03
- Target to cerebellum ratio (histamine H3 receptor; Thalamus, 30 min, anaesthetised): 1.10±0.03
- Target to cerebellum ratio (histamine H3 receptor; Thalamus, 30 min, conscious): 1.11±0.02
- Target to cerebellum ratio (histamine H3 receptor; Thalamus, 120 min, anaesthetised): 1.09±0.02
- Target to cerebellum ratio (histamine H3 receptor; Thalamus, 120 min, conscious): 1.08±0.02
- ratio of specific to non-specific binding (histamine H3 receptor; all brain ROIs, conscious and anaesthetised rats): less than 1.4
- Non-specific binding as % of total binding ([2]; at 6.6±0.1 nM, defined with 10 µM iodophenpropit, n = 3): 39±3%
- Bmax ([2]; whole rat brain homogenates, one-site binding model, n = 8): 508.6±34.9 fmol/mg protein and 509 fmol/mg protein
